Experiments:
ΔF508-CFTR [1] = molecular target: T1, ΔF508-CFTR (Homo sapiens, UniProt P13569, DEL508-508); assay: CFTR cell surface levels using HRP-tagged ΔF508-CFTR expressing CFBE cells, intrinsic corrector capacity; type: cell-based; parameters: % Activation: concentration or dose not given beside the values; conditions: HRP-tagged ΔF508-CFTR expressing CFBE41o- cells, compound alone (intrinsic corrector capacity), 20 hours at 33° C.; for EC50: read-out: EC50
T1 construct: host or cells: CFBE41o-, doxycycline-inducible
In short: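 Read-out: chemiluminescent HRP activity of ECL4-HRP-tagged ΔF508-CFTR at the cell surface, 15 min substrate in dark. Normalized as 100×(sample−DMSO)/(positive control−DMSO).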

ΔF508-CFTR [2] = molecular target: T1, ΔF508-CFTR; assay: CFTR cell surface levels using HRP-tagged ΔF508-CFTR expressing CFBE cells, in the presence of a co-corrector; type: cell-based; conditions: HRP-tagged ΔF508-CFTR CFBE cells, in the presence of 3 μM co-corrector; for EC50: read-out: EC50
In short: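 Chemiluminescent read-out of surface HRP (15 min, dark) after PBS washes. Activity is normalized as 100×(sample−DMSO)/(3 μM co-corrector alone−DMSO).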

T1 sequence (P13569 with tags, fused parts or gaps DEL508-508): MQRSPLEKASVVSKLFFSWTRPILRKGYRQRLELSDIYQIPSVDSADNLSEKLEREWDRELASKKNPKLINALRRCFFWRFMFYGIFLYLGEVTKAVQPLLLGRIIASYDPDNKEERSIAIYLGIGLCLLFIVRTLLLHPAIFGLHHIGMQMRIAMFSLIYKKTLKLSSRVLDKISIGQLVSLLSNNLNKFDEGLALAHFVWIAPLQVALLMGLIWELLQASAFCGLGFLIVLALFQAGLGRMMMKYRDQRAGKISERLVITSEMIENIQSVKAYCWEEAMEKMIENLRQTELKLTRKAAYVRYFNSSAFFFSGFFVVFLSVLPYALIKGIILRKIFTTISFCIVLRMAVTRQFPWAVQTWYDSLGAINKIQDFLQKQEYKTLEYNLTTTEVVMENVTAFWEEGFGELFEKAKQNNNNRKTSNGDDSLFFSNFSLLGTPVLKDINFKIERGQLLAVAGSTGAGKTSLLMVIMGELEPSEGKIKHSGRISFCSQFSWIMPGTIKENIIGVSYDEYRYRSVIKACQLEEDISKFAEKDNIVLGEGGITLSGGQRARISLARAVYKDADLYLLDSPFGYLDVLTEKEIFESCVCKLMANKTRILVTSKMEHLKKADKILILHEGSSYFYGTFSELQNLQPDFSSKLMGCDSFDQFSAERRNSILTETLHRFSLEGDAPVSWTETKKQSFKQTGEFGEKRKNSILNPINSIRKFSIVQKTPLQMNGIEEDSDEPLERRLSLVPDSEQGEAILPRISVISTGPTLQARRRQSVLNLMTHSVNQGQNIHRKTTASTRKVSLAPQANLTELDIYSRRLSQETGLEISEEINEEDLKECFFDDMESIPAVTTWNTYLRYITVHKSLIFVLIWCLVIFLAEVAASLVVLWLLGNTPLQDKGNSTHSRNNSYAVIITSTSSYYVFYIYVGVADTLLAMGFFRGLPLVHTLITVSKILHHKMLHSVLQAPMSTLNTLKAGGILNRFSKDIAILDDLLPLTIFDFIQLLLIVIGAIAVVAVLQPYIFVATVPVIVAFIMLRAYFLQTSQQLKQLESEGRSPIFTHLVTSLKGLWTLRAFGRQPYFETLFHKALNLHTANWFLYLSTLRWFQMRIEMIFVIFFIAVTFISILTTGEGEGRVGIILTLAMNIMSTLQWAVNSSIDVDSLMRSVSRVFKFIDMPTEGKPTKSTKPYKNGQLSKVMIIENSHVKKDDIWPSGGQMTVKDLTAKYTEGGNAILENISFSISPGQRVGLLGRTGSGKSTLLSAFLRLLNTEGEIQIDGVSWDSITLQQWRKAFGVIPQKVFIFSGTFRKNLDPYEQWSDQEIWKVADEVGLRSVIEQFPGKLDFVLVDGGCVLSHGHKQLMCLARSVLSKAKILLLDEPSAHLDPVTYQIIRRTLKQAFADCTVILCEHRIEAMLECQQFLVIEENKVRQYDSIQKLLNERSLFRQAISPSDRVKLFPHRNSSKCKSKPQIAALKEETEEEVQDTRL

Compound	% Activation (ΔF508-CFTR [1]) [%]	EC50 (ΔF508-CFTR [1]) [nM]	% Activation (ΔF508-CFTR [2]) [%]	EC50 (ΔF508-CFTR [2]) [nM]
CC1(S(=O)(=O)NC(=O)c2cc(N3CCC(N4CCN(C5CC5)CC4)CC3)c3c(C4CCC4)nn(-c4ccccc4)c3n2)CC1 [Compound 557, 3-cyclobutyl-4-[4-(4-cyclopropylpiperazin-1-yl)piperidin-1-yl]-N-(1-methylcyclopropane-1-sulfonyl)-1-phenyl-1H-pyrazolo[3,4-b]pyridine-6-carboxamide]	248.5	252	474.4	116
CN(C)S(=O)(=O)NC(=O)c1cc(N2CCC(N3CCC(C(F)(F)F)C3)CC2)c2c(C3CCC3)nn(-c3ccc(F)cc3)c2n1 (centres unmarked) [Compound 560, 3-cyclobutyl-N-(dimethylsulfamoyl)-1-(4-fluorophenyl)-4-{4-[3-(trifluoromethyl)pyrrolidin-1-yl]piperidin-1-yl}-1H-pyrazolo[3,4-b]pyridine-6-carboxamide]	260.4	96.3	544.45	66.1
CN(C)S(=O)(=O)NC(=O)c1cc(N2CCC(N3CCCC(F)C3)CC2)c2c(C3CCC3)nn(-c3ccc(F)cc3)c2n1 (centres unmarked) [Compound 563, 3-cyclobutyl-N-(dimethylsulfamoyl)-4-(3-fluoro[1,4'-bipiperidin]-1'-yl)-1-(4-fluorophenyl)-1H-pyrazolo[3,4-b]pyridine-6-carboxamide]	298.9	198	542.9	111
CS(=O)(=O)NC(=O)c1cc(N2CCC(N3CCC(C(F)(F)F)C3)CC2)c2c(C3CCC3)nn(-c3ccc(F)cc3)c2n1 (centres unmarked) [Compound 564, 3-cyclobutyl-1-(4-fluorophenyl)-N-(methanesulfonyl)-4-{4-[3-(trifluoromethyl)pyrrolidin-1-yl]piperidin-1-yl}-1H-pyrazolo[3,4-b]pyridine-6-carboxamide]	361.35	118	587.4	40.8
CS(=O)(=O)NC(=O)c1cc(N2CCC(N3CCC(C#N)C3)CC2)c2c(C3CCC3)nn(-c3ccc(F)cc3)c2n1 (centres unmarked) [Compound 565, 4-[4-(3-cyanopyrrolidin-1-yl)piperidin-1-yl]-3-cyclobutyl-1-(4-fluorophenyl)-N-(methanesulfonyl)-1H-pyrazolo[3,4-b]pyridine-6-carboxamide]	373.15	182	637.53	69.9
CS(=O)(=O)NC(=O)c1cc(N2CCC(N3CCCC(C#N)C3)CC2)c2c(C3CCC3)nn(-c3ccc(F)cc3)c2n1 (centres unmarked) [Compound 566, 4-(3-cyano[1,4'-bipiperidin]-1'-yl)-3-cyclobutyl-1-(4-fluorophenyl)-N-(methanesulfonyl)-1H-pyrazolo[3,4-b]pyridine-6-carboxamide]	365.1	112	708.8	400
CS(=O)(=O)NC(=O)c1cc(N2CCC(N3CCCC(F)C3)CC2)c2c(C3CCC3)nn(-c3ccc(F)cc3)c2n1 (centres unmarked) [Compound 567, 3-cyclobutyl-4-(3-fluoro[1,4'-bipiperidin]-1'-yl)-1-(4-fluorophenyl)-N-(methanesulfonyl)-1H-pyrazolo[3,4-b]pyridine-6-carboxamide]	312.2	139	539.8	56.3
O=C(NS(=O)(=O)N1CCCCC1)c1cc(N2CCC(N3CCOCC3)CC2)c2c(C3CCC3)nn(-c3ccc(F)cc3)c2n1 [Compound 568, 3-cyclobutyl-1-(4-fluorophenyl)-4-[4-(morpholin-4-yl)piperidin-1-yl]-N-(piperidine-1-sulfonyl)-1H-pyrazolo[3,4-b]pyridine-6-carboxamide]	240.65	77.5	461	46.3
O=C(NS(=O)(=O)N1CC(F)C1)c1cc(N2CCC(N3CCOCC3)CC2)c2c(C3CCC3)nn(-c3ccc(F)cc3)c2n1 [Compound 569, 3-cyclobutyl-N-(3-fluoroazetidine-1-sulfonyl)-1-(4-fluorophenyl)-4-[4-(morpholin-4-yl)piperidin-1-yl]-1H-pyrazolo[3,4-b]pyridine-6-carboxamide]	220.77	112	436.13	88.9
CN(C)S(=O)(=O)NC(=O)c1cc(N2CCC(N3CCCC(C(F)(F)F)C3)CC2)c2c(C3CCC3)nn(-c3ccc(F)cc3)c2n1 (centres unmarked) [Compound 571, 3-cyclobutyl-N-(dimethylsulfamoyl)-1-(4-fluorophenyl)-4-[3-(trifluoromethyl)[1,4'-bipiperidin]-1'-yl]-1H-pyrazolo[3,4-b]pyridine-6-carboxamide]	268.15	129	487.9	77.8
COC1CCCN(C2CCN(c3cc(C(=O)NS(=O)(=O)N(C)C)nc4c3c(C3CCC3)nn4-c3ccc(F)cc3)CC2)C1 (centres unmarked) [Compound 572, 3-cyclobutyl-N-(dimethylsulfamoyl)-1-(4-fluorophenyl)-4-(3-methoxy[1,4'-bipiperidin]-1'-yl)-1H-pyrazolo[3,4-b]pyridine-6-carboxamide]	237.55	295	412.9	225
CN(C)S(=O)(=O)NC(=O)c1cc(N2CCC(N3CCOC(C)(C)C3)CC2)c2c(C3CCC3)nn(-c3ccc(F)cc3)c2n1 [Compound 573, 3-cyclobutyl-4-[4-(2,2-dimethylmorpholin-4-yl)piperidin-1-yl]-N-(dimethylsulfamoyl)-1-(4-fluorophenyl)-1H-pyrazolo[3,4-b]pyridine-6-carboxamide]	270.53	104	467.57	58.5
CC(=O)NCCS(=O)(=O)NC(=O)c1cc(N2CCC(N3CCOCC3)CC2)c2c(C3CCC3)nn(-c3ccc(F)cc3)c2n1 [Compound 574, N-(2-acetamidoethanesulfonyl)-3-cyclobutyl-1-(4-fluorophenyl)-4-[4-(morpholin-4-yl)piperidin-1-yl]-1H-pyrazolo[3,4-b]pyridine-6-carboxamide]	129.9	2760	283.3	542
COC[C@H]1CCCN1S(=O)(=O)NC(=O)c1cc(N2CCC(N3CCOCC3)CC2)c2c(C3CCC3)nn(-c3ccc(F)cc3)c2n1 [Compound 577, 3-cyclobutyl-1-(4-fluorophenyl)-N-[(2R)-2-(methoxymethyl)pyrrolidine-1-sulfonyl]-4-[4-(morpholin-4-yl)piperidin-1-yl]-1H-pyrazolo[3,4-b]pyridine-6-carboxamide]	187.15	257	379.3	105
CN(C1CCOCC1)S(=O)(=O)NC(=O)c1cc(N2CCC(N3CCOCC3)CC2)c2c(C3CCC3)nn(-c3ccc(F)cc3)c2n1 [Compound 579, 3-cyclobutyl-1-(4-fluorophenyl)-N-[methyl(oxan-4-yl)sulfamoyl]-4-[4-(morpholin-4-yl)piperidin-1-yl]-1H-pyrazolo[3,4-b]pyridine-6-carboxamide]	205	376	420.5	319
O=C(NS(=O)(=O)N1CC(F)(F)C1)c1cc(N2CCC(N3CCOCC3)CC2)c2c(C3CCC3)nn(-c3ccc(F)cc3)c2n1 [Compound 580, 3-cyclobutyl-N-(3,3-difluoroazetidine-1-sulfonyl)-1-(4-fluorophenyl)-4-[4-(morpholin-4-yl)piperidin-1-yl]-1H-pyrazolo[3,4-b]pyridine-6-carboxamide]	201.52	131	387.45	52.4
C[C@H]1CN(c2cc(C(=O)NS(=O)(=O)N(C)C)nc3c2c(C2CCC2)nn3C2CCCCC2)CCN1Cc1ccccc1 [Compound 581, 4-[(3S)-4-benzyl-3-methylpiperazin-1-yl]-3-cyclobutyl-1-cyclohexyl-N-(dimethylsulfamoyl)-1H-pyrazolo[3,4-b]pyridine-6-carboxamide]	33.38	370	191.3	761
C[C@@H]1CN(c2cc(C(=O)NS(=O)(=O)N(C)C)nc3c2c(C2CCC2)nn3C2CCCCC2)CCN1Cc1ccccc1 [Compound 582, 4-[(3R)-4-benzyl-3-methylpiperazin-1-yl]-3-cyclobutyl-1-cyclohexyl-N-(dimethylsulfamoyl)-1H-pyrazolo[3,4-b]pyridine-6-carboxamide]	75.38	370	245.15	271
CN(C)S(=O)(=O)NC(=O)c1cc(N2CCC3(CC2)CCN(C2CC2)CC3)c2c(C3CCC3)nn(-c3ccc(F)cc3)c2n1 [Compound 584, 3-cyclobutyl-4-(9-cyclopropyl-3,9-diazaspiro[5.5]undecan-3-yl)-N-(dimethylsulfamoyl)-1-(4-fluorophenyl)-1H-pyrazolo[3,4-b]pyridine-6-carboxamide]	164.3	177	337.55	272
COC1CN(C2CCN(c3cc(C(=O)NS(C)(=O)=O)nc4c3c(C3CCC3)nn4-c3ccc(F)cc3)CC2)C1 [Compound 585, 3-cyclobutyl-1-(4-fluorophenyl)-N-(methanesulfonyl)-4-[4-(3-methoxyazetidin-1-yl)piperidin-1-yl]-1H-pyrazolo[3,4-b]pyridine-6-carboxamide]	316.6	1240	509.7	248
